Entries after “also recorded” stand apart in the source; their conditions may differ. Like-named read-outs stand apart in the source and are kept apart here.
Experiments:
MVL [1] = biological target: T1, MVL (Microcystis viridis, UniProt Q9RHG4); type: binding; settings: for Binding to MVL: Table 1, MVL binding studies
MVL [2] = biological target: T1, MVL; type: binding; settings: for Stoichiometry: carbohydrates per MVL monomer, 10 mM Tris pH 6.5; for ΔG: ΔG = −RT · lnKA, T = 298 K
MVL [3] = biological target: T1, MVL; type: cell-based
[4] = system: M-tropic virus SF162 and a T-tropic virus (LAV); test: Single round HIV-infectivity assay; type: cell-based; settings: read-out: approximate IC50, HIV infectivity
[5] = system: HIV-1 T-cell tropic (T-tropic) strain LAV; settings: read-out: IC50, inhibition of Env-mediated fusion
[6] = system: HIV-1 macrophage tropic (M-tropic) strain SF162; settings: read-out: IC50, inhibition of Env-mediated fusion
[7] = excess carbohydrate, pH 6.85, 27° C.

Molecule: Man6GlcNAc2 [oligomannose-6]
- lifetime of the MVL:carbohydrate complex (MVL [1]; (2πΔδ)^−1 from chemical shift differences): > 16 ms
- Binding to MVL (MVL [1]): 3
- binding to MVL / change of 1H-15N correlation spectra of MVL (MVL [1]; [7]): dramatic changes
- ΔH (MVL [2]; 25° C., pH 6.5): -20.8 ± 0.1 kcal/mol
- Stoichiometry (MVL [2]; one site model, 25° C., listed as Man6): 2.06 ± 0.01
- Stoichiometry (MVL [2]; one site model, 25° C., listed as Man6GlcNAc2): two
- Ka (MVL [2]; equilibrium association constant, one site model, 25° C., pH 6.5): 4.5 (±0.3)×10^6 M^−1
- ΔG (MVL [2]): -9.0 ± 0.6 kcal/mol

Molecule: CC(=O)N[C@H]1C(O)O[C@H](CO)[C@@H](O[C@@H]2O[C@H](CO)[C@@H](O)[C@H](O)[C@@H]2O)[C@@H]1O (stereo partly shown) [Manβ(1→4)GlcNAc]
- binding to MVL / change of 1H-15N correlation spectra of MVL (MVL [1]; pH 6.85): nor do they bind

Molecule: CC(=O)N[C@H]1[C@H](O[C@H]2[C@H](O)[C@@H](NC(C)=O)C(O)O[C@@H]2CO)O[C@H](CO)[C@@H](O)[C@@H]1O (stereo partly shown) [GlcNAcβ(1→4) GlcNAc, GlcNAcβ(1→4)GlcNAc]
- binding to MVL / change of 1H-15N correlation spectra of MVL (MVL [1]; [7]): nor do they bind
- binding to MVL / change of 1H-15N correlation spectra of MVL (MVL [1]; excess carbohydrate, pH 6.85, 27° C., listed as GlcNAc2): identical to that of free MVL

Molecule: Man9GlcNAc2 [oligomannose-9]
- Binding to MVL (MVL [1]): 3
- effect of pretreatment of MVL on inhibition of fusion by MVL (MVL [3]; MVL 200 nM, 5-fold excess of carbohydrate): partially reduced inhibition

Molecule: CC(=O)N[C@H]1[C@H](O[C@H]2[C@H](O)[C@@H](NC(C)=O)C(O)O[C@@H]2CO)O[C@H](CO)[C@@H](O[C@@H]2O[C@H](CO[C@H]3O[C@H](CO)[C@@H](O)[C@H](O)[C@@H]3O)[C@@H](O)[C@H](O)[C@@H]2O)[C@@H]1O (stereo partly shown) [oligomannose-2A, Manα(1→6)Manβ(1→4)GlcNAcβ(1→4)GlcNAc]
- Binding to MVL (MVL [1]): 3
- binding to MVL / change of 1H-15N correlation spectra of MVL (MVL [1]; [7]): binds with high affinity
- ΔH (MVL [2]; 25° C., pH 6.5): -10.5 ± 0.04 kcal/mol
- Stoichiometry (MVL [2]; one site model, 25° C., listed as Man2A): 2.04 ± 0.05
- Stoichiometry (MVL [2]; one site model, 25° C., listed as Man2GlcNAc2): two
- ΔG (MVL [2]): -7.4 ± 0.6 kcal/mol

Molecule: CC(=O)N[C@H]1[C@H](O[C@H]2[C@H](O)[C@@H](NC(C)=O)C(O)O[C@@H]2CO)O[C@H](CO)[C@@H](O[C@@H]2O[C@H](CO[C@H]3O[C@H](CO[C@H]4O[C@H](CO)[C@@H](O)[C@H](O)[C@@H]4O)[C@@H](O)[C@H](O[C@H]4O[C@H](CO)[C@@H](O)[C@H](O)[C@@H]4O)[C@@H]3O)[C@@H](O)[C@H](O[C@H]3O[C@H](CO)[C@@H](O)[C@H](O)[C@@H]3O)[C@@H]2O)[C@@H]1O (stereo partly shown) [oligomannose-5, Man5GlcNAc2]
- Binding to MVL (MVL [1]): 3

Molecule: Manα (1→3)[Manα(1→6)]Manβ [Manα(1→3)[Manα(1→6)]Man]
- binding to MVL / change of 1H-15N correlation spectra of MVL (MVL [1]; pH 6.85): identical to that of free MVL; also recorded: nor do they bind
- effect of pretreatment of MVL on inhibition of fusion by MVL (MVL [3]): no effect

B1: MVL: 113 amino acid, 13 kDa carbohydrate binding protein (lectin) from Microcystis viridis NIES-102, SEQ ID NO: 3 (protein, listed as Microcystis viridis)
chain: ASYKVNIPAGPLWSNAEAQQVGPKIAAAHQGNFTGQWTTVVESAMSVVEVELQVENTGIHEFKTDVLAGPLWSNDEAQKLGPQIAASYGAEFTGQWRTIVEGVMSVIQIKYTF
- IC50 [4]: 30 to 50 nM
- IC50 [5]: 30 ± 4 nM
- IC50 [6]: 37 ± 6 nM
